One may read the pIC50 as −log10 of the IC50, conventionally taken in molar units. Broadly, the solubility is the dissolved amount per volume that the medium holds.

One data set deals with Mouse keratinocytes. In words: MTT cytotoxicity assay, mouse keratinocytes. In kind it is cell-based. The note with it: Keratinocyte, Mouse keratinocytes (normal cells), 72 h. The protocol:
(§1) All cell lines were obtained from the American Type Culture Collection (ATCC) and cultured in the specified medium supplemented with 10% fetal bovine serum, 100 IU/mL penicillin, and 100 μg/mL streptomycin at 37°C in a humidified 5% CO2/95% air incubator. Synthesis of new compounds is described in S1 File, and >95% purity of RA475, Up284 and its analogs were confirmed by NMR and MS. To assess drug cytotoxicity, cells were seeded at 2,500 cells/well (10,000 cells/well for MM lines) in 100 μL medium in 96-well plate as triplicates and after 24 h treated with compounds for a further 72 h. To assess cytotoxicity, the cells were incubated for 2 h at 37°C according to the manufacturer’s protocol with the Thiazolyl Blue Tetrazolium Bromide (20 μL/well of 5 mg/mL stock solution in water) (Sigma, M5655) and A570 measured using a Benchmark Plus microplate spectrophotometer (BIO-RAD). IC50 was estimated using Graphpad Prism 7 software.
(In general: Tetrazolium dyes change colour on reduction, which living cells bring about.)

The test system of data set [1] is high molecular weight polyubiquitinated proteins in SKOV3 cells. In words: Anti-ubiquitin immunoblot, SKOV3. It counts as cell-based. The note with it: Up284 and RA475 0.5 and 1 μM, RA190 1 μM. From the text: (§2) Cell lysate prepared in MPER (Pierce) from each sample was normalized by total protein concentration using the bicinchoninic acid assay and bovine serum albumin standards. Normalized samples were subjected to SDS-PAGE, transferred to PVDF membranes and analyzed by Western blot using antibodies specific to ubiquitin (P4D1, sc-8017, Santa Cruz), PARP (#9542, […]), actin (#66009, Protein Tech Group), Tubulin(#66031, Protein Tech Group), ADRM1/RPN13 (D9Z1U, #12019, Cell Signaling), USP14 (Cell Signal, # 8159), Annexin V (#559763, BD Pharmingen), and for secondary antibodies we utilized either horseradish peroxidase (HRP)-linked anti-mouse IgG or anti-rabbit IgG (GE Healthcare UK Ltd), HRP-linked streptavidin (N100, Thermo Fisher) at the recommended dilution (1:5000).
(§3) Accumulation of high molecular weight polyubiquitinated proteins (polyUb) is a classical phenomenon of proteasome function inhibition due to the stabilization of its substrate.
Fig 3 Impact of RA475 on proteasome function. […] Actin was used as loading control. […] C) 4T1 and HCC1806 cells stably expressing 4UbFL were treated with compounds at indicated doses for 4 h and imaged by IVIS200 after the addition of luciferin substrate (50 μL, 7mg/mL in PBS). […] After a 4 h incubation, the cells were lysed and the luciferase activity in each cell lysate was determined with a luciferase assay kit (Promega) according to the manufacturer’s instructions. Bioluminescence was measured by using a luminometer (Glomax Multidetection system, Promega) E) A patch was shaved of hair on one leg of CD-1 mice, and 10 μg 4UbFL plasmid in 20 μL of PBS was injected into the quadriceps femoralis muscle followed immediately by injection of the 2 Needle Array to 5 mm depth encompassing the injection site and square wave electroporation (ElectroSquarePorator 833, BTX-2 Needle array 5mm gap, Harvard apparatus) delivered as eight pulses at 106V for 20 ms with 200 ms intervals. […] Equally sized areas were analyzed using Living Image 2.20 software. […]

Data set [2] can be described thus: Kinetic aqueous solubility in PBS pH 7.4. In kind it is physicochemical. The note with it: 25 °C, pH 7.4, aqueous buffer, kinetic from dmso stock. The method, then:
Kinetic solubility assays were performed according to Enamine’s aqueous solubility SOP. Briefly, using a 20 mM stock solution of the compound in 100% DMSO dilutions were prepared to a theoretical concentration of 400 μM in duplicates in phosphate-buffered saline pH 7.4 (138 mM NaCl, 2.7 mM KCl, 10 mM K-phosphate) with 2% final DMSO. The experimental compound dilutions in PBS were further allowed to equilibrate at 25°C on a thermostatic shaker for two hours and then filtered through HTS filter plates using a vacuum manifold. The filtrates of test compounds were diluted 2-fold with acetonitrile with 2% DMSO before measuring. In parallel, using a 20 mM stock solution of the compound in 100% DMSO dilutions were prepared to theoretical concentrations of 0 μM (blank), 10 μM, 25 μM, 50 μM, 100 μM, and 200 μM in 50% acetonitrile/PBS with 2% final DMSO to generate calibration curves. Ondansetron was used as a reference compound to control proper assay performance. 200 μL of each sample was transferred to a 96-well plate and measured in the 230–550 nm range with a 5 nm step. The concentrations of compounds in PBS filtrate are calculated using a dedicated Microsoft Excel calculation script. Proper absorbance wavelengths for calculations are selected for each compound manually based on absorbance maximums (absolute absorbance unit values for the minimum and maximum concentration points within the 0–3 OD range). Each final dataset is visually evaluated by the operator, and goodness of fit (R^2) is calculated for each calibration curve.

Another data set deals with Hep3B. In words: MTT cytotoxicity assay, Hep3B. It counts as cell-based. The note with it: Homo sapiens, 72 h. The protocol:
as §1

Data set [3] has as its system high molecular weight polyubiquitinated proteins in OVCAR3 cells. Description: Anti-ubiquitin immunoblot, OVCAR3. It counts as cell-based, human. The note with it: Up284 0.5 μM, bortezomib 0.25 μM, ixazomib 0.25 μM, RA475 0.5 or 1 μM.
Text: as §2, §3
Fig 3 Impact of RA475 on proteasome function. […] Actin was used as loading control. […] C) 4T1 and HCC1806 cells stably expressing 4UbFL were treated with compounds at indicated doses for 4 h and imaged by IVIS200 after the addition of luciferin substrate (50 μL, 7mg/mL in PBS). D) Sub-confluent cultures of ES2 cells stably expressing 4UbFL were seeded at 10,000 cells/well in 96-well microtiter plates. At 18 h post transfection, cells were treated with compounds or vehicle (DMSO) at the doses indicated. After a 4 h incubation, the cells were lysed and the luciferase activity in each cell lysate was determined with a luciferase assay kit (Promega) according to the manufacturer’s instructions. Bioluminescence was measured by using a luminometer (Glomax Multidetection system, Promega) E) A patch was shaved of hair on one leg of CD-1 mice, and 10 μg 4UbFL plasmid in 20 μL of PBS was injected into the quadriceps femoralis muscle followed immediately by injection of the 2 Needle Array to 5 mm depth encompassing the injection site and square wave electroporation (ElectroSquarePorator 833, BTX-2 Needle array 5mm gap, Harvard apparatus) delivered as eight pulses at 106V for 20 ms with 200 ms intervals. One day post electroporation, mice were anesthetized with isoflurane, injected IP with luciferin (0.3 mg in 100 μL water) and optical imaging was performed to determine basal level luciferase expression. Images were acquired for 10 min with a Xenogen IVIS 200 (Caliper, Hopkinton, MA). Equally sized areas were analyzed using Living Image 2.20 software. Mice were imaged weekly during treatment. […]

For the next data set, the system named is CT26. In words: MTT cytotoxicity assay, CT26. In kind it is cell-based. The note with it: Mus musculus, CT26, 72 h. The method, then:
as §1

The test system of the next data set is HCT116. Description: MTT cytotoxicity assay, HCT116. The note with it: Homo sapiens, HCT-116, HCT116, 72 h. In kind it is cell-based. The method, then: as §1
The next data set deals with PACS. Description: MTT cytotoxicity assay, PACS. In kind it is cell-based. The note with it: 72 h. The protocol:
as §1

For the next data set, the system named is SKOV3. Description: MTT cytotoxicity assay, SKOV3. It counts as cell-based. The note with it: Homo sapiens, SK-OV-3, SKOV3, 72 h. The method, then: as §1

pIC50: −log10 of the molar value. ≈ marks a conversion by molar mass, not a printed value. Where two headings read alike, the source gives them in different places.

As for `N#Cc1ccc(/C=C2/C(=O)/C(=C/c3ccc(C#N)cc3)C23CCNCC3)cc1` [Up284, reference compound], the pIC50 was below 5.60 with Mouse keratinocytes; 6.80 with Hep3B; 7.30 in the data set with CT26; 6.96 with HCT116; 6.90 with PACS; 7.15 in the data set with SKOV3. Besides, the “accumulation of high molecular weight polyubiquitinated proteins” value in data set [1] is reported as “robust accumulation of polyUb”. In data set [2], this compound registered a solubility at 2 h of 37 µM (≈ 13.5 µg/mL). For the same compound, the “forms of polyUb induced” value in [3] is recorded as “induced forms of polyUb that did not run into the gel”.
For the compound `Cl.Cl.N#Cc1ccc(/C=C2/C(=O)/C(=C/c3ccc(C#N)cc3)C23CCN(C(=N)N)CC3)cc1` [RA475, 1,3-bis((E)-4-cyanobenzylidene)-2-oxo-7-azaspiro[3.5]nonane-7-carboximidamide dihydrochloride], the pIC50 in the data set on Mouse keratinocytes is below 5.60; in the data set on Hep3B it was 6.00; in the data set on CT26, 6.20; in the data set on HCT116, 6.37; in the data set with PACS, 6.24; in the data set on SKOV3, 6.53. In addition, the “accumulation of high molecular weight polyubiquitinated proteins” value in data set [1] is listed as “robust accumulation of polyUb in dose dependent manner”. Moreover, the solubility at 2 h came out at 136 µM in data set [2] (kinetic, 2% DMSO, 25°C, 2 h, read-out: PBS solubility, pH 7.4, Incubation 1); 138 µM in data set [2] (kinetic, 2% DMSO, 25°C, 2 h, read-out: PBS solubility, pH 7.4, Incubation 2); 137 µM in data set [2] (kinetic, 2% DMSO, 25°C, 2 h, read-out: PBS solubility, pH 7.4, Mean). For the same compound, the “forms of polyUb induced” value in data set [3] is on record as “induced forms of polyUb that did not run into the gel”.
